This passage reports Ki and IC50 results from BindingDB's records for doi:10.3109/14756366.2012.750311 (Atatürk University, 2014).

By Ki is commonly meant a dissociation constant, usually derived from enzyme kinetics or from competition with a known ligand. The low end stands for tighter binding, the high end for weaker binding. By IC50 is commonly meant the concentration at which inhibition is half-maximal. The low end stands for inhibition by little substance, the high end for a need for much substance.

For test [1], the target named is Carbonic anhydrase 2 (Homo sapiens, UniProt P00918). As to the kind of experiment: Hydratase and Esterase Activity Assays. On the procedure: (§1) The effect of novel sulfonamides 28-33 on HCA isozyme activity was determined colorimetrically using CO2-hydration method of Wilbur and Anderson29 described previously [G l in et al., Biol. Pharm. Bull., 27:613-16]. Esterase activity was determined according to the method described by Verpoorte et al [Verpoorte et al., J. Biol. Chem., 242:4221-9].

In test [2] the target is Carbonic anhydrase 1 (Homo sapiens, UniProt P00915). As to the kind of experiment: Hydratase and Esterase Activity Assays. On the procedure: as §1
Sequence of Carbonic anhydrase 1 (P00915 whole entry): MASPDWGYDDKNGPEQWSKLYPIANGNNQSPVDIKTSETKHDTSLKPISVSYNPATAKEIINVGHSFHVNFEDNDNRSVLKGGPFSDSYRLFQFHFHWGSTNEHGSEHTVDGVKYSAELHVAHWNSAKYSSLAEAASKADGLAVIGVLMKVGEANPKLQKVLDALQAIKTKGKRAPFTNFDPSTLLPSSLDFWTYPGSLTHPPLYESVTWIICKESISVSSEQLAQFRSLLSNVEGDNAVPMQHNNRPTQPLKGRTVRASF

For the molecule `COc1cc2c(cc1OC)C(NS(C)(=O)=O)CC2` (stereo not given) [N-(5,6-dimethoxyindane-1-yl)methanesulfonamide (28)], the values for the Ki in test [1] and in test [2] were 215 µM and 52 µM, respectively. The molecule also yielded an IC50 in test [2] of 487 µM.
On to `CS(=O)(=O)NC1CCc2ccccc2C1` (stereo not given) [N-(1,2,3,4-tetrahydronaphthalene-2-yl)methanesulfonamide (31)], for which, in test [1], the IC50 came out at 338 µM and the Ki was 94 µM. This molecule also registered a Ki in test [2] of 228 µM.
With `CS(=O)(=O)NC1Cc2ccccc2C1` [N-(Indane-2-yl)methanesulfonamide (33)], the Ki in test [1] was determined as 170 µM; in test [2], 104 µM.
Take `CS(=O)(=O)NC1CCc2ccccc21` (stereo not given) [N-(Indane-1-yl)methanesulfonamide (29)]: the inhibition constant (Ki) in test [1] amounted to 211 µM; in test [2] it was 173 µM.
`COc1cc2c(cc1OC)CC(NS(C)(=O)=O)C2` [N-(5,6-dimethoxy-2,3-dihydro-1H-inden-2-yl)methanesulfonamide (32)]: the affinity in test [1] corresponds to a Ki of 372 µM. In test [2], this molecule displayed a concentration for half-maximal inhibition (IC50) of 266 µM and a Ki of 46 µM.
Take `COc1cccc2c1CCCC2NS(C)(=O)=O` (stereo not given) [N-(5-metoksi-1,2,3,4-tetrahydronaphthalene-1-yl)methanesulfonamide (30)]: the Ki in test [1] turned out to be 112 µM; in test [2] it was 185 µM.
